This is an account of results in US20160129011A1, “BICYCLO 2,3-BENZODIAZEPINES AND SPIROCYCLICALLY SUBSTITUTED 2,3-BENZODIAZEPINES” (BAYER PHARMA AKTIENGESELLSCHAFT, priority 2013, published 2016).

SMILES strings stand for the structures.

One experiment deals with T1, BRD4 (BD1) (Homo sapiens, UniProt O60885).
T1 construct: longer constructs also being possible, preferably amino acids 44-168; made in house; host or cells: E. coli
The experiment can be described thus: Binding assay BRD4/acetylated peptide H4 (TR-FRET protein-protein interaction assay). The settings on record: BRD4 (BD1) / acetylated histone H4 peptide. The text has this: To assess the BRD4 binding strength of the substances described in this application, the ability thereof to inhibit the interaction between BRD4 (BD1) and acetylated histone H4 in a dose-dependent manner was quantified.
For this purpose, a time-resolved fluorescence resonance energy transfer (TR-FRET) assay was used, which measures the binding between N-terminally His6-tagged BRD4 (BD1) (amino acids 67-152, longer constructs also being possible, preferably amino acids 44-168) and a synthetic acetylated histone H4 (Ac—H4) peptide with sequence GRGK(Ac)GGK(Ac)GLGK(Ac)GGAK(Ac)RHGSGSK-biotin. The recombinant BRD4 protein produced in-house according to Filippakopoulos et al., Nature, 2010, 468:1119-1123 was expressed in E. coli and purified by means of (Ni-NTA) affinity and (Sephadex G-75) size exclusion chromatography. The Ac—H4 peptide can be purchased, for example, from Biosyntan (Berlin, Germany).
In the assay, typically 11 different concentrations of each substance (0.1 nM, 0.33 nM, 1.1 nM, 3.8 nM, 13 nM, 44 nM, 0.15 μM, 0.51 μM, 1.7 μM, 5.9 μM and 20 μM) were analysed as duplicates on the same microtitre plate. For this purpose, 100-fold concentrated solutions in DMSO were prepared by serial dilutions (1:3.4) of a 2 mM stock solution into a clear, 384-well microtitre plate (Greiner Bio-One, Frickenhausen, Germany). From this, 50 nl were transferred into a black test plate (Greiner Bio-One, Frickenhausen, Germany). The test was started by the addition of 2 μl of a 2.5-fold concentrated BRD4 solution (final concentration typically 10 nM in the 5 μl of reaction volume) in aqueous assay buffer [50 mM HEPES pH 7.5, 50 mM sodium chloride (NaCl), 0.25 mM CHAPS and 0.05% serum albumin (BSA)] to the substances in the test plate. This was followed by a 10-minute incubation step at 22° C. for the pre-equilibration of putative complexes between BRD4 and the substances.
The mixture was then incubated in the dark at 22° C. for one hour and then at 4° C. for at least 3 hours and for no longer than overnight. The formation of BRD4/Ac—H4 complexes was determined by the measurement of the resonance energy transfer from the streptavidin-Eu cryptate to the anti-6His-XL665 antibody present in the reaction. For this purpose, the fluorescence emission was measured at 620 nm and 665 nm after excitation at 330-350 nm in a TR-FRET measuring instrument, for example a Rubystar or Pherastar (both from BMG Lab Technologies, Offenburg, Germany) or a Viewlux (Perkin-Elmer). The ratio of the emissions at 665 nm and at […] was taken as an indicator of the amount of BRD4/Ac—H4 complexes formed.
The data (ratios) obtained were normalized, with 0% inhibition corresponding to the mean from the measurements for a set of controls (typically 32 data points) in which all the reagents were present. In these, in place of test substances, 50 nl of DMSO (100%) were used. Inhibition of 100% corresponded to the mean from the measurements for a set of controls (typically 32 data points) in which all the reagents except BRD4 were present. The IC50 was determined by regression analysis based on a 4-parameter equation (minimum, maximum, IC50, Hill; Y=max+(min−max)/(1+(X/IC50)^Hill)).

For another experiment, the system named is MOLM-13 cells. The experiment can be described thus: Cell proliferation assay (alamarBlue), MOLM-13. Type of experiment: cell-based. The settings on record: Homo sapiens, MOLM-13; acute myeloid leukaemia cell line, 96 h incubation. The procedure:
(§1) In accordance with the invention, the ability of the substances to inhibit cell proliferation was determined. Cell viability was determined by means of the alamarBlue® reagent (Invitrogen) in a Victor X3 Multilabel Reader (Perkin Elmer). The excitation wavelength was 530 nm and the emission wavelength […].
The MOLM-13 cells (DSMZ, ACC 554) were sown at a concentration of 4000 cells/well in 100 μl of growth medium (RPMI1640, 10% FCS) on 96-well microtitre plates.
(§2) The MDA-MB-231 cells (DSMZ, ACC 732) were sown at a concentration of 4000 cells/well in 100 μl of growth medium (DMEM/Ham's F12 medium, 10% FCS) on 96-well microtitre plates. After overnight incubation at 37° C., the fluorescence values (CI values) were determined. Then the plates were treated with various substance dilutions (1E-5 M, 3E-6 M, 1E-6 M, 3E-7 M, 1E-7 M, 3E-8 M, 1E-8 M) and incubated at 37° C. for 72 (MV4-11, LOX-IMVI cells), 96 (MOLM-13, B16F10, […] cells), 120 (MOLP-8, KMS-12-PE cells) or 168 (LAPC-4 cells) hours. Subsequently, the fluorescence values were determined (CO values). For the data analysis, the CI values were subtracted from the CO values and the results were compared between cells which had been treated with various dilutions of the substance or only with buffer solution. This was used to calculate the IC50 values (substance concentration required for 50% inhibition of cell proliferation).
(§3) The substances were examined in the cell lines of Table 1 which, in an exemplary manner, represent the stated indications: […]

The next experiment relates to B16F10 cells. The experiment can be described thus: Cell proliferation assay (alamarBlue), B16F10. The settings on record: Mus musculus, B16-F10; melanoma (BRAF wild-type) cell line, 96 h incubation. Type of experiment: cell-based. The procedure: as §1
The B16F10 cells (ATCC, CRL-6475) were sown at a concentration of 300-500 cells/well in 100 μl of growth medium (DMEM with phenol red, 10% FCS) on 96-well microtitre plates.
as §2, §3

For a further experiment, the system named is MOLP-8 cells. Description: Cell proliferation assay (alamarBlue), MOLP-8. The class given is cell-based. The settings on record: Homo sapiens, MOLP-8; multiple myeloma cell line, 120 h incubation. The protocol:
as §1
The MOLP-8 cells (DSMZ, ACC 569) were sown at a concentration of 4000 cells/well in 100 μl of growth medium (RPMI1640, 20% FCS) on 96-well microtitre plates.
as §2, §3

As for `CNC(=O)N1N=C(c2ccc(N3CC4(CN(C(=O)OC(C)(C)C)C4)C3)cc2)c2cc(OC)c(OC)cc2CC1C` (racemic) [Example 8, tert-butyl 6-{4-[(±)-7,8-dimethoxy-4-methyl-3-(methylcarbamoyl)-4,5-dihydro-3H-2,3-benzodiazepine-1-yl]phenyl}-2,6-diazaspiro[3.3]heptane-2-carboxylate], the IC50 on BRD4 (BD1) turned out to be 140 nM; with MOLM-13 cells, 260 nM; in the experiment with B16F10 cells, 180 nM; in the experiment on MOLP-8 cells it was 160 nM.

`CNC(=O)N1N=C(c2ccc(N3CCC4(CCCC4)CC3)cc2)c2cc(OC)c(OC)cc2CC1C` (racemic) [Example 9, (±)-1-[4-(8-azaspiro[4.5]dec-8-yl)phenyl]-7,8-dimethoxy-N,4-dimethyl-4,5-dihydro-3H-2,3-benzodiazepine-3-carboxamide]: the half-inhibitory concentration (IC50) on BRD4 (BD1) came to 250 nM; in the experiment on MOLM-13 cells, 500 nM; in the experiment with B16F10 cells it was 140 nM; in the experiment with MOLP-8 cells, 460 nM.

For the compound `CNC(=O)N1N=C(c2ccc(N3CC4(CN(Cc5ccccc5)C4)C3)cc2)c2cc(OC)c(OC)cc2CC1C` (racemic) [Example 10, (±)-1-[4-(6-benzyl-2,6-diazaspiro[3.3]hept-2-yl)phenyl]-7,8-dimethoxy-N,4-dimethyl-4,5-dihydro-3H-2,3-benzodiazepine-3-carboxamide], the IC50 on BRD4 (BD1) is 80 nM; with MOLM-13 cells it was 150 nM; with B16F10 cells, 150 nM; with MOLP-8 cells, 80 nM.

On to `CNC(=O)N1N=C(c2ccc(N3CCCC4(COC4)C3)cc2)c2cc(OC)c(OC)cc2CC1C` (racemic) [Example 11, (±)-7,8-dimethoxy-N,4-dimethyl-1-[4-(2-oxa-6-azaspiro[3.5]non-6-yl)phenyl]-4,5-dihydro-3H-2,3-benzodiazepine-3-carboxamide], for which the IC50 on BRD4 (BD1) turned out to be 60 nM; in the experiment on MOLM-13 cells, 160 nM; in the experiment on B16F10 cells, 100 nM; with MOLP-8 cells it was 100 nM.

As for `CNC(=O)N1N=C(c2ccc(N3CCC4(CC3)COC4)cc2)c2cc(OC)c(OC)cc2CC1C` (racemic) [Example 12, (±)-7,8-dimethoxy-N,4-dimethyl-1-[4-(2-oxa-7-azaspiro[3.5]non-7-yl)phenyl]-4,5-dihydro-3H-2,3-benzodiazepine-3-carboxamide], the IC50 at BRD4 (BD1) stood at 80 nM; with MOLM-13 cells, 220 nM; in the experiment on B16F10 cells it was 170 nM; with MOLP-8 cells, 140 nM.

In the case of `CNC(=O)N1N=C(c2cccc(N3CC4(CCS4(=O)=O)C3)c2)c2cc(OC)c(OC)cc2CC1C` (racemic) [Example 14, 1-[3-(1,1-dioxido-1-thia-6-azaspiro[3.3]hept-6-yl)phenyl]-7,8-dimethoxy-N,4-dimethyl-4,5-dihydro-3H-2,3-benzodiazepine-3-carboxamide], the IC50 on BRD4 (BD1) was 170 nM; in the experiment with MOLM-13 cells it was 330 nM; in the experiment with B16F10 cells, 260 nM; with MOLP-8 cells it was 240 nM.

Turning to `CNC(=O)N1N=C(c2ccc(F)c(N3CC4(CCS4(=O)=O)C3)c2)c2cc(OC)c(OC)cc2CC1C` (racemic) [Example 15, (±)-1-[3-(1,1-dioxido-1-thia-6-azaspiro[3.3]hept-6-yl)-4-fluorophenyl]-7,8-dimethoxy-N,4-dimethyl-4,5-dihydro-3H-2,3-benzodiazepine-3-carboxamide], the IC50 turned out to be 250 nM on BRD4 (BD1), 600 nM in the experiment with MOLM-13 cells, 590 nM in the experiment on B16F10 cells and 480 nM in the experiment with MOLP-8 cells.

On to `CNC(=O)N1N=C(c2ccc(N3CC4(CCS4(=O)=O)C3)cc2)c2cc(OC(F)(F)F)ccc2CC1C` (racemic) [Example 18, (±)-1-[4-(1,1-dioxido-1-thia-6-azaspiro[3.3]hept-6-yl)phenyl]-N,4-dimethyl-8-(trifluoromethoxy)-4,5-dihydro-3H-2,3-benzodiazepine-3-carboxamide], for which the concentration for half-maximal inhibition (IC50) at BRD4 (BD1) is 40 nM; in the experiment with MOLM-13 cells, 70 nM; in the experiment with B16F10 cells it was 60 nM; with MOLP-8 cells, 60 nM.

Regarding `CNC(=O)N1N=C(c2ccc(-c3ccc4c(c3)OCO4)cc2)c2cc(OC)c(OC)cc2CC1C` (racemic) [Example 27, (±)-1-[4-(1,3-benzodioxol-5-yl)phenyl]-7,8-dimethoxy-N,4-dimethyl-4,5-dihydro-3H-2,3-benzodiazepine-3-carboxamide], the IC50 was found to be 110 nM at BRD4 (BD1), 480 nM in the experiment on MOLM-13 cells, 350 nM with B16F10 cells and 460 nM in the experiment on MOLP-8 cells.

With `CNC(=O)N1N=C(c2ccc(N3CCC4(COC4)C3)cc2)c2cc(OC)c(OC)cc2CC1C` (racemic) [Example 29, (±)-7,8-dimethoxy-N,4-dimethyl-1-[4-(2-oxa-6-azaspiro[3.4]oct-6-yl)phenyl]-4,5-dihydro-3H-2,3-benzodiazepine-3-carboxamide], the IC50 is 50 nM on BRD4 (BD1), 220 nM in the experiment on MOLM-13 cells, 100 nM in the experiment on B16F10 cells and 90 nM with MOLP-8 cells.

Take `CNC(=O)N1N=C(c2ccc(N3CCN4CCCC4C3)cc2)c2cc(OC)c(OC)cc2CC1C` (racemic) [Example 30, (±)-1-[4-(hexahydropyrrolo[1,2-a]pyrazin-2(1H)-yl)phenyl]-7,8-dimethoxy-N,4-dimethyl-4,5-dihydro-3H-2,3-benzodiazepine-3-carboxamide]: the IC50 came to 70 nM on BRD4 (BD1), 200 nM in the experiment with MOLM-13 cells and 90 nM in the experiment on MOLP-8 cells.

Regarding `CNC(=O)N1N=C(c2ccc(N3C[C@H]4CN(C)C[C@H]4C3)cc2)c2cc(OC)c(OC)cc2CC1C` (mixture of isomers) [Example 33, (±)-7,8-dimethoxy-N,4-dimethyl-1-{4-[(3aR,6aS)-5-methylhexahydropyrrolo[3,4-c]pyrrol-2(1H)-yl]phenyl}-4,5-dihydro-3H-2,3-benzodiazepine-3-carboxamide], the IC50 came out at 90 nM on BRD4 (BD1), 220 nM in the experiment with MOLM-13 cells and 110 nM in the experiment on MOLP-8 cells.
